Where no end group is shown, it is not given here.
Key:
PfNT1 = target: T1, PfNT1 (Plasmodium falciparum, UniProt Q8IDM6); assay: [3H]VF-6 transport (efflux) from injected Xenopus oocytes; format: cell-based; settings: trans-inhibition, treatment 45 mM
T1 construct: expressed in transfected cells; host or cells: Xenopus laevis oocytes (stage V-VI), cRNA-injected

PfCRT^Dd2 = assay: cell-based; format: cell-based, Plasmodium falciparum; settings: for PfCRT-mediated [3H]CQ transport, trans-stimulation (% PfCRTDd2 control): PfCRTDd2 oocytes, normalised to oocyte type control; for [3H]CQ transport (% PfCRTDd2 control), trans-stimulation, PfCRTDd2: PfCRT-mediated component (background subtracted), mean ± SEM, SEM
How it was run: (§1)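 Oocytes (ten per treatment, ≥4 independent frogs/days) were preloaded by injecting VF-6 in 25 nL ND96 at pH 5.0, 5.5, 6.0 or 7.0, or Na^+-free choline buffer, then uptake run 1.5 h, 27.5 °C, ND96 pH 5.5 by default. Internal concentrations assumed ~400 nL oocyte volume.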

PfCRT^Ecu1110 = assay: cell-based; format: cell-based, Plasmodium falciparum; settings: for PfCRT-mediated [3H]CQ transport, trans-stimulation (% PfCRTEcu1110 control): PfCRTEcu1110 oocytes, normalised to oocyte type control; for [3H]CQ transport (% PfCRTDd2 control), trans-stimulation, PfCRTEcu1110: PfCRT-mediated component (background subtracted), sheet title says normalised to PfCRTDd2 control, mean ± SEM, SEM
How it was run: as §1

[1] = target: T2, PfCRT^Dd2 in C4^Dd2 parasites (Plasmodium falciparum, UniProt Q8IBZ9, A220S/I356T/K76T/M74I/N326S/N75E/Q271E/R371I); assay: P. falciparum H+-efflux assay (rate of DV alkalinisation after concanamycin A); format: cell-based; settings: C4Dd2; test solute 10 μM
T2 construct: PfCRT also functions as a peptide transporter within its native environment of the DV membrane; expressed in transfected cells; host or cells: P. falciparum pfcrt transfectant line C4^Dd2 (saponin-isolated trophozoites)
T2 sequence (Q8IBZ9 1-424 M74I/N75E/K76T/A220S/Q271E/N326S/I356T/R371I): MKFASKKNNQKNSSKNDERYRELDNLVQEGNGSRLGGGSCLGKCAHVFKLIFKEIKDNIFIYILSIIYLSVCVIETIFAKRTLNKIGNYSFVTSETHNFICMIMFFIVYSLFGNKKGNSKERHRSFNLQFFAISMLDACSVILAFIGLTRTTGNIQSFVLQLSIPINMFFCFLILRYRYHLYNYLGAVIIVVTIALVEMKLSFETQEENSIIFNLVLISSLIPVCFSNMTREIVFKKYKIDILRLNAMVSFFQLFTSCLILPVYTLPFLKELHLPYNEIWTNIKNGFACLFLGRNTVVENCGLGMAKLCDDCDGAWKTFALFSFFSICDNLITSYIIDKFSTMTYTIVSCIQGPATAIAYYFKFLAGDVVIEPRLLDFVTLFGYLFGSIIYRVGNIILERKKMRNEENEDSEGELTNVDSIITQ

[2] = [test solute]i = 5 mM (intracellular)
[3] = [test solute]i = 45 mM (intracellular; 30 mM for some solutes due to solubility)
[4] = [test solute]i = 5 mM (injected)
[5] = [test solute]i = 45 mM (30 mM for some solutes due to solubility)

T1 sequence (Q8IDM6 whole entry): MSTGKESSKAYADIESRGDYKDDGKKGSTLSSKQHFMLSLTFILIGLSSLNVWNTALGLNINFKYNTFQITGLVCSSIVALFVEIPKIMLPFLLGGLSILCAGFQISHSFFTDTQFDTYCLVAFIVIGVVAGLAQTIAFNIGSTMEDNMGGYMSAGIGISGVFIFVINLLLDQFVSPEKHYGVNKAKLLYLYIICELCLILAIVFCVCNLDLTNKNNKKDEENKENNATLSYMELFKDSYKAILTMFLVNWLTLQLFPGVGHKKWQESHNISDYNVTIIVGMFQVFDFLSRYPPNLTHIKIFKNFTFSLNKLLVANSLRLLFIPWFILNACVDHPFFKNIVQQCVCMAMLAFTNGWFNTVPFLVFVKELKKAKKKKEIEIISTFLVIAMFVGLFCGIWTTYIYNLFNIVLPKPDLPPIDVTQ

Molecule: VDPVNF [VF-6]
- [3H]VF-6 transport, PfNT1 (% PfCRT3D7 control) (PfNT1; Experiment 1): 3.58 % PfCRT3D7 control
- [3H]VF-6 transport, PfNT1 (% PfCRT3D7 control) (PfNT1; Experiment 2): 3.28 % PfCRT3D7 control
- [3H]VF-6 transport, PfNT1 (% PfCRT3D7 control) (PfNT1; Experiment 3): 3.22 % PfCRT3D7 control
- [3H]VF-6 transport, PfNT1 (% PfCRT3D7 control) (PfNT1; Experiment 4): 4.26 % PfCRT3D7 control
- [3H]VF-6 transport, PfNT1 (% PfCRT3D7 control) (PfNT1; Experiment 5): 4.11 % PfCRT3D7 control

Molecule: N[C@@H](Cc1c[nH]cn1)C(=O)O [L-histidine]
- PfCRT-mediated [3H]CQ transport, trans-stimulation (% PfCRTDd2 control) (PfCRT^Dd2; [2]): 99 ± 3.9 % PfCRTDd2 control
- PfCRT-mediated [3H]CQ transport, trans-stimulation (% PfCRTDd2 control) (PfCRT^Dd2; [3]): 95 ± 2.5 % PfCRTDd2 control
- [3H]CQ transport (% PfCRTDd2 control), trans-stimulation, PfCRTDd2 (PfCRT^Dd2; [4]): 99 ± 3.9 % PfCRTDd2 control
- [3H]CQ transport (% PfCRTDd2 control), trans-stimulation, PfCRTDd2 (PfCRT^Dd2; [5]): 95 ± 2.5 % PfCRTDd2 control
- PfCRT-mediated [3H]CQ transport, trans-stimulation (% PfCRTEcu1110 control) (PfCRT^Ecu1110; [2]): 98 ± 2.8 % PfCRTEcu1110 control
- PfCRT-mediated [3H]CQ transport, trans-stimulation (% PfCRTEcu1110 control) (PfCRT^Ecu1110; [3]): 97 ± 4.1 % PfCRTEcu1110 control
- [3H]CQ transport (% PfCRTDd2 control), trans-stimulation, PfCRTEcu1110 (PfCRT^Ecu1110; [4]): 33 ± 2.2 % PfCRTEcu1110 control
- [3H]CQ transport (% PfCRTDd2 control), trans-stimulation, PfCRTEcu1110 (PfCRT^Ecu1110; [5]): 32 ± 1.6 % PfCRTEcu1110 control
- Effect on rate of DV alkalinisation / H+ leak (in words) [1]: without effect

Molecule: PVNF [VF-6-derived peptide]
- [3H]VF-6 transport, PfNT1 (% PfCRT3D7 control) (PfNT1; Experiment 1): 4.26 % PfCRT3D7 control
- [3H]VF-6 transport, PfNT1 (% PfCRT3D7 control) (PfNT1; Experiment 2): 4.27 % PfCRT3D7 control
- [3H]VF-6 transport, PfNT1 (% PfCRT3D7 control) (PfNT1; Experiment 3): 4.41 % PfCRT3D7 control
- [3H]VF-6 transport, PfNT1 (% PfCRT3D7 control) (PfNT1; Experiment 4): 3.17 % PfCRT3D7 control
- [3H]VF-6 transport, PfNT1 (% PfCRT3D7 control) (PfNT1; Experiment 5): 4.26 % PfCRT3D7 control

Molecule: DPVNF [VF-6-derived peptide]
- [3H]VF-6 transport, PfNT1 (% PfCRT3D7 control) (PfNT1; Experiment 1): 3.26 % PfCRT3D7 control
- [3H]VF-6 transport, PfNT1 (% PfCRT3D7 control) (PfNT1; Experiment 2): 3.36 % PfCRT3D7 control
- [3H]VF-6 transport, PfNT1 (% PfCRT3D7 control) (PfNT1; Experiment 3): 3.25 % PfCRT3D7 control
- [3H]VF-6 transport, PfNT1 (% PfCRT3D7 control) (PfNT1; Experiment 4): 3.79 % PfCRT3D7 control
- [3H]VF-6 transport, PfNT1 (% PfCRT3D7 control) (PfNT1; Experiment 5): 3.25 % PfCRT3D7 control

Reference: paper PMC7413254 (Nature Communications, 2020)
